Results taken from patent US6737383B1, “Herbicidal oxadiazolidines” (priority 1999, dated 2004).

Columns and labels:
[1] = system: purple nutsedge; test: Test B pre/postemergence purple nutsedge; format: in vivo, Cyperus rotundus; details: for Nutsedge plant response rating: scale of 0 to 10 where 0 is no effect and 10 is complete control
Outline: (§1)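 Herbicidal effect was estimated by eye on a ten-point control scale after plants spent twelve to sixteen days in a greenhouse following soil or foliar treatment. Foliar sprays targeted plants at one to four leaves; all doses were formulated in a non-phytotoxic solvent with surfactant.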

[2] = system: surinam grass; test: Test B pre/postemergence surinam grass; format: in vivo, Brachiaria decumbens; details: for B. signalgrass plant response rating: scale of 0 to 10 where 0 is no effect and 10 is complete control
Outline: as §1

[3] = system: pigweed; test: Test B pre/postemergence pigweed; format: in vivo, Amaranthus retroflexus; details: for Redroot pigweed plant response rating: scale of 0 to 10 where 0 is no effect and 10 is complete control
Outline: as §1

[4] = system: bamyardgrass; test: Test B flood test barnyardgrass; format: in vivo, Echinochloa crus-galli
Outline: (§2)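 Each value is a visual injury score relative to controls, with 10 meaning complete control and 0 no effect. Evaluation took place twelve to sixteen days after the 2-leaf-stage plants were treated and kept in the greenhouse.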

[5] = system: sugar beet; test: Test B pre/postemergence sugar beet; format: in vivo, Beta vulgaris; details: for Sugarbeets plant response rating: scale of 0 to 10 where 0 is no effect and 10 is complete control
Outline: as §1

[6] = system: smallflower flatsedge; test: Test B flood test smallflower flatsedge; format: in vivo, Cyperus difformis
Outline: as §2

[7] = system: wild oat; test: Test B pre/postemergence wild oat; format: in vivo, Avena fatua; details: for Wild oats plant response rating: scale of 0 to 10 where 0 is no effect and 10 is complete control
Outline: as §1

[8] = system: wheat; test: Test B pre/postemergence wheat; format: in vivo, Triticum aestivum; details: for Wheat plant response rating: scale of 0 to 10 where 0 is no effect and 10 is complete control
Outline: as §1

[9] = system: cocklebur; test: Test B pre/postemergence cocklebur; format: in vivo, Xanthium strumarium; details: for Cocklebur plant response rating: scale of 0 to 10 where 0 is no effect and 10 is complete control
Outline: as §1

[10] = system: morningglory; test: Test B pre/postemergence morningglory; format: in vivo, Ipomoea hederacea; details: for Morningglory plant response rating: scale of 0 to 10 where 0 is no effect and 10 is complete control
Outline: as §1

[11] = system: blackgrass; test: Test B pre/postemergence blackgrass; format: in vivo, Alopecurus myosuroides; details: for Blackgrass plant response rating: scale of 0 to 10 where 0 is no effect and 10 is complete control
Outline: as §1

[12] = system: giant foxtail; test: Test B pre/postemergence giant foxtail; format: in vivo, Setaria faberii; details: for Giant foxtail plant response rating: scale of 0 to 10 where 0 is no effect and 10 is complete control
Outline: as §1

[13] = system: duck salad; test: Test B flood test duck salad; format: in vivo, Heteranthera limosa
Outline: as §2

[14] = system: soybean; test: Test B pre/postemergence soybean; format: in vivo, Glycine max; details: for Soybean plant response rating: scale of 0 to 10 where 0 is no effect and 10 is complete control
Outline: as §1

[15] = system: rape; test: Test B pre/postemergence rape; format: in vivo, Brassica napus; details: for Rape plant response rating: scale of 0 to 10 where 0 is no effect and 10 is complete control
Outline: as §1

[16] = system: bedstraw; test: Test B pre/postemergence bedstraw; format: in vivo, Galium aparine; details: Postemergence
Outline: as §1

[17] = Postemergence, Rate 125 g/ha, scale 0 to 10, 0 is no effect, 10 is complete control
[18] = Postemergence, Rate 250 g/ha, scale 0 to 10, 0 is no effect, 10 is complete control
[19] = Preemergence, Rate 62 g/ha, scale 0 to 10 (0 no effect, 10 complete control)
[20] = Rate 500 g/ha, Postemergence, scale 0 to 10, 0 no effect, 10 complete control
[21] = Rate 62 g/ha, flood test species, Pre-emergence, visual evaluation after twelve to sixteen days
[22] = Rate 125 g/ha, under heading Pre-emergence, flood test species, visual evaluation after twelve to sixteen days
[23] = Rate 250 g/ha, Pre-emergence, flood-test species, scale 0 to 10, 0 is no effect, 10 is complete control
[24] = Rate 500 g/ha, Pre-emergence, flood test species, scale 0 to 10 (0 no effect, 10 complete control)

For `CC(C)N(C(=O)n1oc(=O)n(N2C(C)CCCC2C)c1=O)c1ccc(F)cc1` (stereo not shown) [Compound 382], the “Plant response rating, Nutsedge” value [1, 17] was 0, the “Plant response rating, Nutsedge” value [1, 18] was 0 and the “Plant response rating, Nutsedge” value [1, 19] was 0. For the same molecule, the “Nutsedge plant response rating (0 to 10 scale)” value ([1]; Preemergence, Rate 125 g/ha) was 0, the “Nutsedge plant response rating” value ([1]; Preemergence, Rate 250 g/ha) was 0 and the “Nutsedge plant response rating” value ([1]; Preemergence, Rate 500 g/ha) was 0. The “Nutsedge plant response rating” value ([1]; Rate 62 g/ha, Postemergence) was 0, the “Plant response rating, Nutsedge” value [1, 20] was 0 and the “Plant response rating, B. signalgrass” value [2, 17] was 0. For the same molecule, the “Plant response rating, B. signalgrass” value [2, 18] was 0, the “Plant response rating, B. signalgrass” value [2, 19] was 0 and the “B. signalgrass plant response rating (0 to 10 scale, 0 is no effect, 10 is complete control)” value ([2]; Preemergence, Rate 125 g/ha) was 0. For the same molecule, the “B. signalgrass plant response rating” value ([2]; Preemergence, Rate 250 g/ha) was 2, the “B. signalgrass plant response rating” value ([2]; Preemergence, Rate 500 g/ha) was 6 and the “B. signalgrass plant response rating” value ([2]; Rate 62 g/ha, Postemergence) was 0. For the same molecule, the “Plant response rating, B. signalgrass” value [2, 20] was 0, the “Plant response rating, Redroot pigweed” value [3, 17] was 0 and the “Plant response rating, Redroot pigweed” value [3, 18] was 0. For the same molecule, the “Plant response rating, Redroot pigweed” value [3, 19] was 0, the “Redroot pigweed plant response rating (0 to 10 scale)” value ([3]; Preemergence, Rate 125 g/ha) was 0 and the “Redroot pigweed plant response rating” value ([3]; Preemergence, Rate 250 g/ha) was 0. For the same molecule, the “Redroot pigweed plant response rating” value ([3]; Preemergence, Rate 500 g/ha) was 0, the “Redroot pigweed plant response rating” value ([3]; Rate 62 g/ha, Postemergence) was 0 and the “Plant response rating, Redroot pigweed” value [3, 20] was 0. The “Plant response rating, Barnyardgrass (0 to 10 scale, 0 is no effect, 10 is complete control)” value [4, 21] was 0, the “Barnyardgrass plant response rating (0 to 10 scale, 0 is no effect, 10 is complete control)” value [4, 22] was 0 and the “Barnyardgrass plant response rating” value [4, 23] was 0. For the same molecule, the “Barnyardgrass plant response rating” value [4, 24] was 0, the “Plant response rating, Sugarbeets” value [5, 17] was 0 and the “Plant response rating, Sugarbeets” value [5, 18] was 0. For the same molecule, the “Plant response rating, Sugarbeets” value [5, 19] was 0, the “Sugarbeets plant response rating (0 to 10 scale)” value ([5]; Preemergence, Rate 125 g/ha) was 0 and the “Sugarbeets plant response rating” value ([5]; Preemergence, Rate 250 g/ha) was 0. The “Sugarbeets plant response rating” value ([5]; Preemergence, Rate 500 g/ha) was 0, the “Sugarbeets plant response rating” value ([5]; Rate 62 g/ha, Postemergence) was 0 and the “Plant response rating, Sugarbeets” value [5, 20] was 0. The “Plant response rating, S. Flatsedge (0 to 10 scale, 0 is no effect, 10 is complete control)” value [6, 21] was 0, the “S. Flatsedge plant response rating (0 to 10 scale, 0 is no effect, 10 is complete control)” value [6, 22] was 0 and the “S. Flatsedge plant response rating” value [6, 23] was 0. The “S. Flatsedge plant response rating” value [6, 24] was 0, the “Plant response rating, Wild oats” value [7, 17] was 0 and the “Plant response rating, Wild oats” value [7, 18] was 0. The “Plant response rating, Wild oats” value [7, 19] was 0, the “Wild oats plant response rating (0 to 10 scale)” value ([7]; Preemergence, Rate 125 g/ha) was 0 and the “Wild oats plant response rating” value ([7]; Preemergence, Rate 250 g/ha) was 0. The “Wild oats plant response rating” value ([7]; Preemergence, Rate 500 g/ha) was 4, the “Wild oats plant response rating” value ([7]; Rate 62 g/ha, Postemergence) was 0 and the “Plant response rating, Wild oats” value [7, 20] was 0. The “Plant response rating, Wheat” value [8, 17] was 0, the “Plant response rating, Wheat” value [8, 18] was 0 and the “Plant response rating, Wheat” value [8, 19] was 0. For the same molecule, the “Wheat plant response rating (0 to 10 scale)” value ([8]; Preemergence, Rate 125 g/ha) was 0, the “Wheat plant response rating” value ([8]; Preemergence, Rate 250 g/ha) was 0 and the “Wheat plant response rating” value ([8]; Preemergence, Rate 500 g/ha) was 0. For the same molecule, the “Wheat plant response rating” value ([8]; Rate 62 g/ha, Postemergence) was 0, the “Plant response rating, Wheat” value [8, 20] was 0 and the “Plant response rating, Cocklebur” value [9, 17] was 0. The “Plant response rating, Cocklebur” value [9, 18] was 0, the “Plant response rating, Cocklebur” value [9, 19] was 0 and the “Cocklebur plant response rating (0 to 10 scale)” value ([9]; Preemergence, Rate 125 g/ha) was 0. For the same molecule, the “Cocklebur plant response rating” value ([9]; Preemergence, Rate 250 g/ha) was 0, the “Cocklebur plant response rating” value ([9]; Rate 62 g/ha, Postemergence) was 0 and the “Plant response rating, Cocklebur” value [9, 20] was 0. The “Plant response rating, Morningglory” value [10, 17] was 0, the “Plant response rating, Morningglory” value [10, 18] was 0 and the “Plant response rating, Morningglory” value [10, 19] was 0. The “Morningglory plant response rating (0 to 10 scale)” value ([10]; Preemergence, Rate 125 g/ha) was 0, the “Morningglory plant response rating” value ([10]; Preemergence, Rate 250 g/ha) was 0 and the “Morningglory plant response rating” value ([10]; Preemergence, Rate 500 g/ha) was 0. For the same molecule, the “Morningglory plant response rating” value ([10]; Rate 62 g/ha, Postemergence) was 0, the “Plant response rating, Morningglory” value [10, 20] was 0 and the “Plant response rating, Blackgrass” value [11, 17] was 0. The “Plant response rating, Blackgrass” value [11, 18] was 2, the “Plant response rating, Blackgrass” value [11, 19] was 0 and the “Blackgrass plant response rating (0 to 10 scale)” value ([11]; Preemergence, Rate 125 g/ha) was 1. The “Blackgrass plant response rating” value ([11]; Preemergence, Rate 250 g/ha) was 3, the “Blackgrass plant response rating” value ([11]; Preemergence, Rate 500 g/ha) was 7 and the “Blackgrass plant response rating” value ([11]; Rate 62 g/ha, Postemergence) was 0. The “Plant response rating, Blackgrass” value [11, 20] was 2, the “Plant response rating, Giant foxtail” value [12, 17] was 3 and the “Plant response rating, Giant foxtail” value [12, 18] was 3. For the same molecule, the “Plant response rating, Giant foxtail” value [12, 19] was 9, the “Giant foxtail plant response rating (0 to 10 scale)” value ([12]; Preemergence, Rate 125 g/ha) was 9 and the “Giant foxtail plant response rating” value ([12]; Preemergence, Rate 250 g/ha) was 9. For the same molecule, the “Giant foxtail plant response rating” value ([12]; Preemergence, Rate 500 g/ha) was 10, the “Giant foxtail plant response rating” value ([12]; Rate 62 g/ha, Postemergence) was 0 and the “Plant response rating, Giant foxtail” value [12, 20] was 4. For the same molecule, the “Plant response rating, Ducksalad (0 to 10 scale, 0 is no effect, 10 is complete control)” value [13, 21] was 0, the “Ducksalad plant response rating (0 to 10 scale, 0 is no effect, 10 is complete control)” value [13, 22] was 0 and the “Ducksalad plant response rating” value [13, 23] was 0. For the same molecule, the “Ducksalad plant response rating” value [13, 24] was 0, the “Plant response rating, Soybean” value [14, 17] was 3 and the “Plant response rating, Soybean” value [14, 18] was 4. For the same molecule, the “Plant response rating, Soybean” value [14, 19] was 0, the “Soybean plant response rating (0 to 10 scale)” value ([14]; Preemergence, Rate 125 g/ha) was 0 and the “Soybean plant response rating” value ([14]; Preemergence, Rate 250 g/ha) was 0. For the same molecule, the “Soybean plant response rating” value ([14]; Preemergence, Rate 500 g/ha) was 0, the “Soybean plant response rating” value ([14]; Rate 62 g/ha, Postemergence) was 1 and the “Plant response rating, Soybean” value [14, 20] was 5. For the same molecule, the “Plant response rating, Rape” value [15, 17] was 0, the “Plant response rating, Rape” value [15, 18] was 0 and the “Plant response rating, Rape” value [15, 19] was 0. For the same molecule, the “Rape plant response rating (0 to 10 scale)” value ([15]; Preemergence, Rate 125 g/ha) was 0, the “Rape plant response rating” value ([15]; Preemergence, Rate 250 g/ha) was 0 and the “Rape plant response rating” value ([15]; Preemergence, Rate 500 g/ha) was 0. The “Rape plant response rating” value ([15]; Rate 62 g/ha, Postemergence) was 0, the “Plant response rating, Rape” value [15, 20] was 0 and the “Plant response rating, Bedstraw” value ([16]; Rate 250 g/ha, scale 0 to 10, 0 is no effect, 10 is complete control) was 4. For the same molecule, the “Plant response rating, Bedstraw” value ([16]; Rate 500 g/ha, scale 0 to 10, 0 no effect, 10 complete control) was 4.
